Laboratory results taken from ChEMBL document CHEMBL4507326, “Data for DCP probe TP-030-2” (2021).
Activity calls are given as the source filed them. The calls are words filed in the database; no cut-off is given here.

Columns and labels:
[1] = molecular target: Alpha-1D adrenergic receptor (Homo sapiens) (UniProt P25100); assay: Inhibition of Adrenergic alpha1D at 10 µM in the Eurofins-Panlabs radioligand binding assay (Eurofins_assay_203400); conditions: Compound concentration 10.0 uM
Rattus norvegicus = species on record: Rattus norvegicus; assay: Inhibition of Imidazoline I2, Central at 10 µM in the Eurofins-Panlabs radioligand binding assay (Eurofins_assay_241000); set-up: ligand concentration 2 nM; conditions: Compound concentration 10.0 uM
[2] = molecular target: Melatonin receptor type 1A (Homo sapiens) (UniProt P48039); assay: Inhibition of Melatonin MT1 at 10 µM in the Eurofins-Panlabs radioligand binding assay (Eurofins_assay_251600); set-up: ligand concentration 0.05 nM; conditions: Compound concentration 10.0 uM
[3] = molecular target: Receptor-interacting serine/threonine-protein kinase 1 (Mus musculus, UniProt Q60855); assay: TR-FRET (mouse RIPK1)
[4] = molecular target: RAC-gamma serine/threonine-protein kinase (Homo sapiens, UniProt Q9Y243); assay: Akt3 [PKBgamma(AKT3LGY1)] Takeda global kinase panel
[5] = molecular target: Ankyrin repeat and protein kinase domain-containing protein 1 (Homo sapiens, UniProt Q8NFD2); assay: SgK288(ANK1LGRL) Takeda global kinase panel
Aurora kinase A = Aurora kinase A (Homo sapiens, UniProt O14965); assay: AurA [Aur2(AURALGF1)] Takeda global kinase panel
[6] = molecular target: Tyrosine-protein kinase receptor UFO (Homo sapiens, UniProt P30530); assay: Axl(AXL1LGY1) Takeda global kinase panel
[7] = molecular target: Serine/threonine-protein kinase B-raf (Homo sapiens, UniProt P15056); assay: BRAF(BRAFLGY1) Takeda global kinase panel
[8] = molecular target: Cell division cycle 7-related protein kinase (Homo sapiens, UniProt O00311); assay: CDC7(CDC7CGP1) Takeda global kinase panel
[9] = molecular target: Cyclin-dependent kinase 9 (Homo sapiens, UniProt P50750); assay: CDK9(CDK9CGS1) Takeda global kinase panel
[10] = molecular target: Dual specificity protein kinase CLK1 (Homo sapiens, UniProt P49759); assay: CLK1(CLK1LGF1) Takeda global kinase panel
[11] = molecular target: Casein kinase I isoform gamma-1 (Homo sapiens, UniProt Q9HCP0); assay: CK1gamma1(C1G1LGI1) Takeda global kinase panel
[12] = molecular target: Serine/threonine-protein kinase DCLK3 (Homo sapiens, UniProt Q9C098); assay: DCAMKL3(DCL3LGP1) Takeda global kinase panel
[13] = molecular target: Cyclin-G-associated kinase (Homo sapiens, UniProt O14976); assay: GAK(GAK1PGF1) Takeda global kinase panel
[14] = molecular target: Tyrosine-protein kinase HCK (Homo sapiens, UniProt P08631); assay: HCK(HCK1LGF1) Takeda global kinase panel
LIM domain kinase 1 = LIM domain kinase 1 (Homo sapiens, UniProt P53667); assay: LIMK1(LIM1LGY1) Takeda global kinase panel
[15] = molecular target: Mitogen-activated protein kinase kinase kinase kinase 5 (Homo sapiens, UniProt Q9Y4K4); assay: KHS1(M4K5LGY1) Takeda global kinase panel
[16] = molecular target: Mitogen-activated protein kinase 4 (Homo sapiens, UniProt P31152); assay: ERK4(MAP4LGY1) Takeda global kinase panel
[17] = molecular target: MAP/microtubule affinity-regulating kinase 3 (Homo sapiens, UniProt P27448); assay: MARK3(MAR3LGO5) Takeda global kinase panel
[18] = molecular target: Microtubule-associated serine/threonine-protein kinase 1 (Homo sapiens, UniProt Q9Y2H9); assay: MAST1(MAS1LGE5) Takeda global kinase panel
[19] = molecular target: Mixed lineage kinase domain-like protein (Homo sapiens, UniProt Q8NB16); assay: MLKL(MLKLPHY1) Takeda global kinase panel
[20] = molecular target: Serine/threonine-protein kinase Nek1 (Homo sapiens, UniProt Q96PY6); assay: Nek1(NEK1LGY1) Takeda global kinase panel
[21] = molecular target: Serine/threonine-protein kinase Nek3 (Homo sapiens, UniProt P51956); assay: Nek3(NEK3LGRI) Takeda global kinase panel
[22] = molecular target: NUAK family SNF1-like kinase 1 (Homo sapiens, UniProt O60285); assay: NuaK1(NUA1LGF5) Takeda global kinase panel
[23] = molecular target: Serine/threonine-protein kinase PINK1, mitochondrial (Homo sapiens, UniProt Q9BXM7); assay: PINK1(PIN1PHRE) Takeda global kinase panel
[24] = molecular target: Serine/threonine-protein kinase PLK1 (Homo sapiens, UniProt P53350); assay: PLK1(PLK1LGY1) Takeda global kinase panel
[25] = molecular target: Serine/threonine-protein kinase RIO2 (Homo sapiens, UniProt Q9BVS4); assay: RIOK2(RIO2LGF1) Takeda global kinase panel
[26] = molecular target: STE20-like serine/threonine-protein kinase (Homo sapiens, UniProt Q9H2G2); assay: SLK(SLK1LGRJ) Takeda global kinase panel
[27] = molecular target: Serine/threonine-protein kinase 32C (Homo sapiens, UniProt Q86UX6); assay: YANK3(S32CLGI1) Takeda global kinase panel
[28] = molecular target: Serine/threonine-protein kinase 33 (Homo sapiens, UniProt Q9BYT3); assay: STK33(ST33LGF1) Takeda global kinase panel
[29] = molecular target: STE20/SPS1-related proline-alanine-rich protein kinase (Homo sapiens, UniProt Q9UEW8); assay: STLK3(ST39LGRJ) Takeda global kinase panel
TGF-beta receptor type-2 = TGF-beta receptor type-2 (Homo sapiens, UniProt P37173); assay: TGFbetaR2(TGF2LGY1) Takeda global kinase panel
[30] = molecular target: Serine/threonine-protein kinase tousled-like 1 (Homo sapiens, UniProt Q9UKI8); assay: TLK1(TLK1LGP1) Takeda global kinase panel
Activated CDC42 kinase 1 = Activated CDC42 kinase 1 (Homo sapiens, UniProt Q07912); assay: Ack(TNK2LGF1) Takeda global kinase panel
[31] = molecular target: Testis-specific serine/threonine-protein kinase 1 (Homo sapiens, UniProt Q9BXA7); assay: TSSK1(TS1BLGP1) Takeda global kinase panel
[32] = molecular target: Mitogen-activated protein kinase kinase kinase 20 (Homo sapiens, UniProt Q9NYL2); assay: ZAK(ZAK1LGY1) Takeda global kinase panel
[33] = molecular target: Phosphatidylinositol 4,5-bisphosphate 3-kinase catalytic subunit delta isoform (Homo sapiens, UniProt O00329); assay: PI3KCD(PI3DCGRK) Takeda global kinase panel
[34] = molecular target: Bromodomain testis-specific protein (Homo sapiens, UniProt Q58F21); assay: BRDT(BRDTLGRC) Takeda global kinase panel
[35] = molecular target: 5-hydroxytryptamine receptor 5A (Homo sapiens) (UniProt P47898); conditions: Compound concentration 10.0 uM
[36] = molecular target: D(1A) dopamine receptor (Homo sapiens) (UniProt P21728); conditions: Compound concentration 10.0 uM
[37] = molecular target: Mu-type opioid receptor (Homo sapiens) (UniProt P35372); conditions: Compound concentration 10.0 uM
[38] = molecular target: Alpha-2B adrenergic receptor (Homo sapiens) (UniProt P18089); conditions: Compound concentration 10.0 uM
[39] = molecular target: 5-hydroxytryptamine receptor 2B (Homo sapiens) (UniProt P41595); conditions: Compound concentration 10.0 uM
[40] = molecular target: Sodium-dependent noradrenaline transporter (Homo sapiens) (UniProt P23975); conditions: Compound concentration 10.0 uM

Activated CDC42 kinase 1, sequence (Q07912 whole entry): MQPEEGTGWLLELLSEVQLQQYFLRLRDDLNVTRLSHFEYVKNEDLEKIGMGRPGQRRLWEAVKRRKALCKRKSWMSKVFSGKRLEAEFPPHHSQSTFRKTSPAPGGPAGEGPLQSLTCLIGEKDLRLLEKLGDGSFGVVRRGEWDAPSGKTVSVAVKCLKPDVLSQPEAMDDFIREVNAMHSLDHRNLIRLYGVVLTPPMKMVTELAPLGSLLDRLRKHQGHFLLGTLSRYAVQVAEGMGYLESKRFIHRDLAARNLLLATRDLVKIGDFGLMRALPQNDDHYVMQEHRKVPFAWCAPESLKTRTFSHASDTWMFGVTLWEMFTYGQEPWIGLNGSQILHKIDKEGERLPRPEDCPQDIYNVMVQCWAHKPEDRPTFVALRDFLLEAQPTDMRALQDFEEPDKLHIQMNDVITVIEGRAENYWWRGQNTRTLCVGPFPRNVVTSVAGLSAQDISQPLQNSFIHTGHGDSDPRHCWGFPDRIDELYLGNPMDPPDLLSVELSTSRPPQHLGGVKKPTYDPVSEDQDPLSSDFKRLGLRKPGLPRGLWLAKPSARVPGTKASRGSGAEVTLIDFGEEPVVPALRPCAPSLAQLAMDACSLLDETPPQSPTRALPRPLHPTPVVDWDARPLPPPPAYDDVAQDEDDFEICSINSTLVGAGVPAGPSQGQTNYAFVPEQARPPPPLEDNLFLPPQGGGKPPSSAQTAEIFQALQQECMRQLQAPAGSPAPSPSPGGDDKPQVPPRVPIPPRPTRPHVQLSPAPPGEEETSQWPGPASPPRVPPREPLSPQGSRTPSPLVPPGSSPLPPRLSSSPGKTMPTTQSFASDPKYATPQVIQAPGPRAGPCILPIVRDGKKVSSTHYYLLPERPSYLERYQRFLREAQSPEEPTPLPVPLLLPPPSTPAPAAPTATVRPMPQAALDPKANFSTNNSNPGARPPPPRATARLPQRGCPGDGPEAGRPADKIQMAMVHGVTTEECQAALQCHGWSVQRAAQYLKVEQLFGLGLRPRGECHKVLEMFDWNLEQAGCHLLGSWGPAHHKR
Dual specificity protein kinase CLK1, sequence (P49759 whole entry, canonical isoform): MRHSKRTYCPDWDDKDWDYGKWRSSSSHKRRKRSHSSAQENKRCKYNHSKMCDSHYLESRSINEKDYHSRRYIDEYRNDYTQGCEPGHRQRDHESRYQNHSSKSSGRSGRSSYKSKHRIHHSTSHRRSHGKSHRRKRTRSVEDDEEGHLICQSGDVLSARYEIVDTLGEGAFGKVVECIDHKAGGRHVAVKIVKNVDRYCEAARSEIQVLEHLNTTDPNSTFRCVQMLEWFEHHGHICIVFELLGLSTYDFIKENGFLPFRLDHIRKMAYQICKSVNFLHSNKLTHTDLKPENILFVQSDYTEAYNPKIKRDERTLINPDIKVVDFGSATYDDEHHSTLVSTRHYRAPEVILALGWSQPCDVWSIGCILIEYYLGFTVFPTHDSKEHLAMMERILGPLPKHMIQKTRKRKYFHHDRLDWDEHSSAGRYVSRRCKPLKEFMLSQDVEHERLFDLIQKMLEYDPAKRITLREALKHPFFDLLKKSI
Mitogen-activated protein kinase kinase kinase 20, sequence (Q9NYL2 whole entry, canonical isoform): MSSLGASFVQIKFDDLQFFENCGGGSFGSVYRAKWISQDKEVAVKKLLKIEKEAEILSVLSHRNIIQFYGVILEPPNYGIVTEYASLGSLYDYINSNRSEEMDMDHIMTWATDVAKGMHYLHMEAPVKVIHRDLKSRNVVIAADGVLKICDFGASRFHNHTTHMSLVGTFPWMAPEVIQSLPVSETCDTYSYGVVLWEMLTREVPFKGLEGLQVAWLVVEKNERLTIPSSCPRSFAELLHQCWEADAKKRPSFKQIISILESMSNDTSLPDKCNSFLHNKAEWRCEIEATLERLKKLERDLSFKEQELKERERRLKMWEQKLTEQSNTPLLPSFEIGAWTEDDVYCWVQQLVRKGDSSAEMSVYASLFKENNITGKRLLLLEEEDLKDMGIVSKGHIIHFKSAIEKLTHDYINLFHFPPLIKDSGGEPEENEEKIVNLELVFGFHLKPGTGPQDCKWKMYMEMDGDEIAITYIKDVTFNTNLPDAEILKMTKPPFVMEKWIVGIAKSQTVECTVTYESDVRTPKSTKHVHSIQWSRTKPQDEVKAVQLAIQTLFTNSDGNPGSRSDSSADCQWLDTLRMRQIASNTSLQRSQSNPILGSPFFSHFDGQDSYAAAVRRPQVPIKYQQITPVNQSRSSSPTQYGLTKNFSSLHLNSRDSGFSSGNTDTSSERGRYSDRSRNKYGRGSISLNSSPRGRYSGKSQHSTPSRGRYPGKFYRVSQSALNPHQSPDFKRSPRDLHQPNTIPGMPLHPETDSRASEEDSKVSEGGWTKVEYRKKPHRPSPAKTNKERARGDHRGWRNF
Cell division cycle 7-related protein kinase, sequence (O00311 whole entry): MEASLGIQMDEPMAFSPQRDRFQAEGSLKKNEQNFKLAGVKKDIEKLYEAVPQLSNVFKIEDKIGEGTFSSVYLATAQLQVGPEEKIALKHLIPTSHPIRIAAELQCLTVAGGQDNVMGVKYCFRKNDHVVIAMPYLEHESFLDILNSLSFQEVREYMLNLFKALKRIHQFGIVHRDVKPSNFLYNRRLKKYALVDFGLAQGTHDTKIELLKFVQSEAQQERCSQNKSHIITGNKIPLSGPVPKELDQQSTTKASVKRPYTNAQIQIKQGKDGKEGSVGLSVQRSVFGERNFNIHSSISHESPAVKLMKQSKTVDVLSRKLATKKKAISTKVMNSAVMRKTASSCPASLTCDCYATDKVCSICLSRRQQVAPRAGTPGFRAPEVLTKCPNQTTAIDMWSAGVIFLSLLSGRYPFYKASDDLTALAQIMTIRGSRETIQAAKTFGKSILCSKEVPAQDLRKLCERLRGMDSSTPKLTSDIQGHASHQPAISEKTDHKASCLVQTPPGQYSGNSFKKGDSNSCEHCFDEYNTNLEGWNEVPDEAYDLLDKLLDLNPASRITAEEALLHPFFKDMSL
Tyrosine-protein kinase receptor UFO, sequence (P30530 whole entry): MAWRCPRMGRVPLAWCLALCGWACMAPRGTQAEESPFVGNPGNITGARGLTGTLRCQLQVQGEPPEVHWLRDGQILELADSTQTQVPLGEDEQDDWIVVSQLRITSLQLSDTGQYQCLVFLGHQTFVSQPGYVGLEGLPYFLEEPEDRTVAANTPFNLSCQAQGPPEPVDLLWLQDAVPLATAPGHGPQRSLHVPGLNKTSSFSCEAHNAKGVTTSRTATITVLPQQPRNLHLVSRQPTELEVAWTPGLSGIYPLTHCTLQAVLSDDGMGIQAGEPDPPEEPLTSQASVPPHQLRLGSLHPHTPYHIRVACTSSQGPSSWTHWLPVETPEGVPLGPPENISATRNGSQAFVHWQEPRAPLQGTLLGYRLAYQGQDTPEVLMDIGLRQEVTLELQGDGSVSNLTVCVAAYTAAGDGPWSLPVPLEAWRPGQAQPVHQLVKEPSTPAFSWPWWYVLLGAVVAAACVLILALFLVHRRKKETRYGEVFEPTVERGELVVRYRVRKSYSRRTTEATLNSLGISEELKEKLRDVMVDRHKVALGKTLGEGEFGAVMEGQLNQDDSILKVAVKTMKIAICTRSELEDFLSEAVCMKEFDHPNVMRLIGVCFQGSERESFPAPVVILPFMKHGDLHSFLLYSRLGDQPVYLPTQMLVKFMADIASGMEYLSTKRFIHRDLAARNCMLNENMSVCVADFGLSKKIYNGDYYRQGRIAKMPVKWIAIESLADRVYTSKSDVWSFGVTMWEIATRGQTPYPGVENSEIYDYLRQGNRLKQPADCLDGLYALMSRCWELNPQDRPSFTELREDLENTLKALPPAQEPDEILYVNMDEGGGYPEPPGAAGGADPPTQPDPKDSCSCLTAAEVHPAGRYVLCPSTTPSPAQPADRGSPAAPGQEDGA
Mitogen-activated protein kinase kinase kinase kinase 5, sequence (Q9Y4K4 whole entry): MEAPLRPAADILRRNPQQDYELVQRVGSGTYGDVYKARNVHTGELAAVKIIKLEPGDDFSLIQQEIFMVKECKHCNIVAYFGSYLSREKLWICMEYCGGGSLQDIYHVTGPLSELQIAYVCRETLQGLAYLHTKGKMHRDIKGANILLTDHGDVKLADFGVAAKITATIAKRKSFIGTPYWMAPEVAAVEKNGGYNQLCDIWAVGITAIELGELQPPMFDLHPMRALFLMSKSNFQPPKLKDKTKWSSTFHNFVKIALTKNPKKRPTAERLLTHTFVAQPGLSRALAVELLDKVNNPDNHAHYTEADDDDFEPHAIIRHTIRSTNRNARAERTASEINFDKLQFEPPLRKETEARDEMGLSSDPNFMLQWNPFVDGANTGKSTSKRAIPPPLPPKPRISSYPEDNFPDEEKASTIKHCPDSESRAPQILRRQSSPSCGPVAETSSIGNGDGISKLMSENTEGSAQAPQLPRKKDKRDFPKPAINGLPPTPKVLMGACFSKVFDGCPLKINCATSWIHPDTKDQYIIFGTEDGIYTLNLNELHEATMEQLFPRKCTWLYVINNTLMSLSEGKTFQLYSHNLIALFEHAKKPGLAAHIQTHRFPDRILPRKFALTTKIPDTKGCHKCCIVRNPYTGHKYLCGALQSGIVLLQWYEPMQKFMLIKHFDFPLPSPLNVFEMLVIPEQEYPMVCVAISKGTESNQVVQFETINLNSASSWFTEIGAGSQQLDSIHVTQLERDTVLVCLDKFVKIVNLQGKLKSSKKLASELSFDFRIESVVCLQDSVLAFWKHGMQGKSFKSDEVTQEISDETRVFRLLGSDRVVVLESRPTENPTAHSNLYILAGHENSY
Testis-specific serine/threonine-protein kinase 1, sequence (Q9BXA7 whole entry): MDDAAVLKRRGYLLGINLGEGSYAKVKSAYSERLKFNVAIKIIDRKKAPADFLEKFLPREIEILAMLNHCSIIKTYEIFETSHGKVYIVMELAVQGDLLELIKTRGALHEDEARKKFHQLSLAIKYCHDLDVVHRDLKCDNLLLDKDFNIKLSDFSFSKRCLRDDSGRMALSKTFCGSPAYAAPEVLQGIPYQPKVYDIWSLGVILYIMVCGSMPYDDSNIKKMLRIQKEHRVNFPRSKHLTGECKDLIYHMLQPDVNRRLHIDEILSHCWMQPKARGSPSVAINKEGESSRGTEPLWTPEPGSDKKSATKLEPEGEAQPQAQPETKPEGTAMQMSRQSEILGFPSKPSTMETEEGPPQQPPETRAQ

**Q.** What does the source list for `CN1C(=O)[C@@H](N2CCc3c(nn(Cc4ccccc4)c3Br)C2=O)COc2ccccc21` [TP-030-2]?
**A.** inhibition [1]: -2%; inhibition (Rattus norvegicus): -6%; inhibition [2]: 33%; IC50 [3]: 100 nM (active); IC50 [4]: 1000 nM; IC50 [5]: 1000 nM; IC50 (Aurora kinase A): 1000 nM; IC50 [6]: 1000 nM; IC50 [7]: 1000 nM; IC50 [8]: 1000 nM; IC50 [9]: 1000 nM; IC50 [10]: 1000 nM; IC50 [11]: 1000 nM; IC50 [12]: 1000 nM; IC50 [13]: 1000 nM; IC50 [14]: 1000 nM; IC50 (LIM domain kinase 1): 1000 nM; IC50 [15]: 1000 nM; IC50 [16]: 1000 nM; IC50 [17]: 1000 nM; IC50 [18]: 1000 nM; IC50 [19]: 1000 nM; IC50 [20]: 1000 nM; IC50 [21]: 1000 nM; IC50 [22]: 1000 nM; IC50 [23]: 1000 nM; IC50 [24]: 1000 nM; IC50 [25]: 1000 nM; IC50 [26]: 1000 nM; IC50 [27]: 1000 nM; IC50 [28]: 1000 nM; IC50 [29]: 1000 nM; IC50 (TGF-beta receptor type-2): 1000 nM; IC50 [30]: 1000 nM; IC50 (Activated CDC42 kinase 1): 1000 nM; IC50 [31]: 1000 nM; IC50 [32]: 1000 nM; IC50 [33]: 1000 nM; IC50 [34]: 1000 nM; inhibition [35]: 38.2%; inhibition [36]: 16.1%; inhibition [37]: 14.6%; inhibition [38]: 59.6%; inhibition [39]: 63%; inhibition [40]: 27%
